The supplement of paper PMC10307832

Key:
XMD13-2 = compound: C1CC1C(=O)NC2=NNC3=C2C=CC(=C3)C4=CC(=CC=C4)C(=O)NC5CC5 [XMD13-2]; assay: relative viability (nuclei count vs DMSO), 5 days (fraction); higher = more cells survive
Method in brief: (§1)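 For viability, nuclei in each treated well were divided by nuclei in vehicle wells and the median across plates was taken. Lung cancer cell lines in 1536-well plates were pinned with five library-drug doses (not always all listed) spaced by √10, cultured 5 days without medium change, and imaged at 4× after Hoechst staining, with plates passing only at control CV below 25% and at least one doubling.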

Dasatinib = compound: Cc1nc(Nc2ncc(C(=O)Nc3c(C)cccc3Cl)s2)cc(N2CCN(CCO)CC2)n1 [Dasatinib]; assay: as above
Method in brief: as §1

| Cell Line | relative viability (XMD13-2; 0.05 µM) | relative viability (XMD13-2; 0.1581 µM) | relative viability (XMD13-2; 0.5 µM) | relative viability (XMD13-2; 1.581 µM) | relative viability (XMD13-2; 5 µM) | relative viability (Dasatinib; 0.005 µM) | relative viability (Dasatinib; 0.01581 µM) | relative viability (Dasatinib; 0.05 µM) | relative viability (Dasatinib; 0.075 µM, anchor plate) | relative viability (Dasatinib; 0.1581 µM) | relative viability (Dasatinib; 0.5 µM) |
| --- | --- | --- | --- | --- | --- | --- | --- | --- | --- | --- | --- |
| NCI-H322M | 1.05 | 0.918 | 0.893 | 0.911 | 1.08 | 0.892 | 0.827 | 0.526 | 0.257 | 0.319 | 0.216 |
| NCI-H358 | 1.18 | 0.918 | 1.06 | 0.928 | 0.704 | 0.867 | 0.695 | 0.593 | 0.165 | 0.248 | 0.163 |
| NCI-H441 | 1.19 | 1.08 | 0.968 | 0.96 | 0.771 | 1.03 | 0.997 | 1.11 | 0.675 | 0.636 | 0.338 |
| NCI-H460 | 1.06 | 1.01 | 1.06 | 1.01 | 0.982 | 0.949 | 0.897 | 0.856 | 0.529 | 0.73 | 0.605 |
| NCI-H520 | 1.09 | 1.09 | 1.08 | 0.851 | 0.643 | 0.785 | 0.592 | 0.518 | 0.21 | 0.257 | 0.243 |
| NCI-H522 | 1.08 | 1.03 | 0.935 | 0.918 | 0.745 | 0.964 | 0.829 | 0.801 | 0.904 | 0.768 | 0.758 |
| NCI-H596 | 1.03 | 1.02 | 0.944 | 1.03 | 1.12 | 0.978 | 0.788 | 0.736 | 0.631 | 0.551 | 0.453 |
| NCI-H647 | 1.12 | 1.05 | 1.06 | 1.03 | 0.747 | 0.76 | 0.572 | 0.372 | 0.199 | 0.227 | 0.207 |
| NCI-H650 | 1.1 | 0.963 | 1.04 | 0.845 | 1.03 | 0.876 | 0.936 | 0.861 | 0.475 | 0.712 | 0.5 |
| NCI-H661 | 0.971 | 1.04 | 0.971 | 0.976 | 0.844 | 0.955 | 1.06 | 0.911 | 0.974 | 0.8 | 0.661 |
| NCI-H727 | 1.06 | 0.892 | 0.973 | 0.947 | 1.04 | 0.724 | 0.678 | 0.53 | 0.37 | 0.388 | 0.256 |
| NCI-H838 | 1.11 | 0.962 | 1.01 | 0.998 | 1.07 | 0.87 | 0.676 | 0.532 | 0.307 | 0.38 | 0.289 |
| NCI-H1299 | 0.984 | 1.04 | 1.05 | 1.04 | 1.09 | 1.04 | 0.996 | 0.998 | – | 0.886 | 0.263 |
| NCI-H1355 | 1.12 | 0.961 | 0.995 | 0.949 | 1.02 | 1 | 0.83 | 0.998 | 0.731 | 0.781 | 0.582 |
| NCI-H1395 | 1.06 | 0.918 | 0.948 | 0.852 | 1 | 0.91 | 1.03 | 0.783 | 0.435 | 0.442 | 0.429 |
| NCI-H1437 | 0.984 | 0.992 | 1.02 | 0.941 | 1.06 | 1.05 | 1.05 | 1.04 | 0.443 | 0.887 | 0.348 |

| Cell Line | relative viability (XMD13-2; 0.05 µM) | relative viability (XMD13-2; 0.1581 µM) | relative viability (XMD13-2; 0.5 µM) | relative viability (XMD13-2; 1.581 µM) | relative viability (XMD13-2; 5 µM) | relative viability (Dasatinib; 0.005 µM) | relative viability (Dasatinib; 0.01581 µM) | relative viability (Dasatinib; 0.05 µM) | relative viability (Dasatinib; 0.075 µM, anchor plate) | relative viability (Dasatinib; 0.1581 µM) | relative viability (Dasatinib; 0.5 µM) |
| --- | --- | --- | --- | --- | --- | --- | --- | --- | --- | --- | --- |
| NCI-H1563 | 1.07 | 1.03 | 1.09 | 0.966 | 1.06 | 0.901 | 0.703 | 0.735 | 0.465 | 0.619 | 0.584 |
| NCI-H1623 | 0.948 | 1.03 | 0.879 | 0.89 | 0.965 | 0.97 | 0.851 | 0.935 | 0.542 | 0.767 | 0.564 |
| NCI-H1648 | 1.14 | 0.764 | 0.84 | 0.94 | 0.814 | 1.26 | 0.938 | 1.03 | – | 0.405 | 0.192 |
| NCI-H1650 | 1.08 | 0.936 | 1.17 | 0.951 | 0.907 | 0.868 | 0.769 | 0.6 | 0.336 | 0.388 | 0.338 |
| NCI-H1651 | 1.06 | 0.95 | 1.03 | 1.02 | 1.04 | 1.01 | 0.902 | 0.91 | 0.391 | 0.817 | 0.758 |
| NCI-H1666 | 1.05 | 1.05 | 0.997 | 0.994 | 0.964 | 0.995 | 1 | 1.02 | 0.851 | 0.829 | 0.478 |
| NCI-H1703 | 1.29 | 1.33 | 1.05 | 0.764 | 1.06 | 0.482 | 0.457 | 0.311 | – | 0.177 | 0.148 |
| NCI-H1734 | 1.1 | 0.848 | 1.03 | 0.869 | 0.748 | 0.863 | 0.772 | 0.777 | 0.481 | 0.508 | 0.51 |
| NCI-H1755 | 1.07 | 0.997 | 0.994 | 0.985 | 1.04 | 0.964 | 0.868 | 0.747 | 0.44 | 0.544 | 0.363 |
| NCI-H1792 | 1.09 | 0.907 | 0.925 | 0.808 | 1.12 | 0.844 | 0.773 | 0.643 | 0.827 | 0.653 | 0.277 |
| NCI-H1793 | 1.27 | 0.721 | 1.07 | 0.977 | 1.12 | 0.635 | 0.543 | 0.537 | 0.391 | 0.457 | 0.414 |
| NCI-H1915 | 1.02 | 0.958 | 1.08 | 0.985 | 1 | 0.966 | 0.987 | 0.903 | 0.315 | 0.492 | 0.256 |
| NCI-H1944 | 1.11 | 0.958 | 1.06 | 1.18 | 0.977 | 0.918 | 0.902 | 0.644 | 0.228 | 0.286 | 0.208 |
| NCI-H1975 | 1.23 | 1.01 | 0.98 | 1.1 | 0.961 | 0.83 | 0.768 | 0.78 | 0.378 | 0.545 | 0.282 |
| NCI-H1993 | 1.07 | 0.895 | 0.885 | 0.822 | 0.925 | 0.793 | 0.653 | 0.856 | 0.625 | 0.736 | 0.507 |
